# Legend:
# Format in all cases: in vivo, human
# [1] = system: adult subjects with relapsing MS; test: Time to first 12-week / 24-week confirmed disability accumulation (CDA) on EDSS; conditions: ponesimod 20 mg, teriflunomide 14 mg
# Method: Secondary efficacy variables and testing strategy: Four secondary efficacy endpoints were analyzed as per the statistical testing strategy outlined in FIG. 1. • Change from baseline to Week 108 in fatigue-related symptoms as measured by the symptoms domain of the FSIQ-RMS patient-reported outcome [Fatigue] • Cumulative number of combined unique active lesions from baseline to Week 108 on brain MRI [CUALs] • Time to first 12-week confirmed disability accumulation (CDA) from baseline to EOS on Expanded Disability Status Scale (EDSS) [12-week CDA] • Time to first 24-week CDA from baseline to EOS on EDSS [24-week CDA]
# (§1) A 12-week CDA is an increase of at least 1.5 in EDSS for subjects with a baseline EDSS score of 0.0 or an increase of at least 1.0 in EDSS for subjects with a baseline EDSS score of 1.0 to 5.0, or an increase of at least 0.5 in EDSS for subjects with a baseline EDSS score≥5.5 which is to be confirmed after 12 weeks.
# All EDSS measurements (with or without relapse, at a scheduled or unscheduled visit) were used to determine the onset of disability accumulation. However, EDSS scores used for confirmation of disability accumulation were obtained at a scheduled visit (i.e., unscheduled visits cannot be used as confirmatory visits) outside any ongoing relapse. In this context, relapse duration is defined as period between start and end dates if available and limited to 90 days from onset if end date is not available or duration is longer than 90 days.
# In order to confirm that the EDSS increase is persistent, all EDSS measurements between the onset and the 12-week EDSS confirmation (minus 7-day visit time-window) need to show an increase in EDSS, meeting the criteria for accumulation of disability as defined above.
# as §1, with “24-week” for “12-week”, “24” for “12”
# In order to confirm that the EDSS increase is persistent, all EDSS measurements between the onset and the 24-week EDSS confirmation (minus 7-day visit time-window) need to show an increase in EDSS, meeting the criteria for accumulation of disability as defined above.
# [2] = system: adult subjects with relapsing MS; test: Treatment-emergent adverse events (Safety Set); conditions: for AESI effect on heart rate and rhythm (including hypotension) on Day 1: subjects with at least one AE, %: Day 1 (ponesimod dose 2 mg);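 for all read-outs here: safety Set comprises every randomized subject given one or more doses, analysed by the treatment actually received rather than the assigned arm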
# Method: The Safety Set (SAF) included all randomized subjects who received at least one dose of study treatment. Subjects were analyzed based on actual treatment taken, not randomized treatment.
# [3] = system: adult subjects with relapsing MS; test: 12-lead ECG heart rate and first-dose effects on Day 1; conditions: Day 1
# Method: As per up-titration regimen, the dose of ponesimod on Day 1 is 2 mg.
# [4] = system: Patients (18-55 years) with RMS; test: Prespecified MRI-based endpoints and NEDA-3 status
# Method: Patients (18-55 years) with RMS (expanded disability status scale scores: 0-5.5) were randomized (1:1) to receive ponesimod (PON) 20 mg or teriflunomide (TER) 14 mg for 108 weeks. MRI assessments were: volume of T2 lesions; mean number of new gadolinium-enhancing (Gd+) T1 lesions and new/enlarging T2 lesions; and absence of active MRI lesions at week 108. NEDA-3 status (absence of confirmed relapse, Gd+T1 lesions and new/enlarging T2 lesions on annual MRIs, and 12-week confirmed disability accumulation) was evaluated from baseline to week 108.
# [5] = ponesimod 20 mg, teriflunomide 14 mg
# [6] = treatment-emergent AESI, Safety Set
# [7] = treatment-emergent AESI, Safety Set, listed as teriflunomide
# [8] = treatment-emergent, Safety Set, listed as teriflunomide
compound,measurement,setting,value
"C/C(O)=C(\C#N)C(=O)Nc1ccc(C(F)(F)F)cc1 [Teriflunomide, reference compound]",Subjects with a 12-week CDA up to EOS,[1],12.4%
same,Subjects with a 24-week CDA up to EOS,[1]; exploratory,9.9%
same,"AESI effect on heart rate and rhythm (including hypotension) on Day 1: subjects with at least one AE, %",[2]; Safety Set,(0.4) %
same,"AESI effect on heart rate and rhythm (including hypotension) on Day 1: subjects with at least one AE, %","[2]; Safety Set, listed as teriflunomide",0.4%
same,"Day 1 AESI PT Electrocardiogram QT prolonged, %","[2]; Day 1, Safety Set",(0.2) %
same,"Day 1 AESI PT Presyncope, %","[2]; Day 1, Safety Set",(0.2) %
same,"TEAE ALT increased, subjects",[2]; [5],9.4%
same,"TEAE headache, subjects",[2]; [5],12.7%
same,"TEAE nasopharyngitis, subjects",[2]; [5],16.8%
same,"TEAE upper respiratory tract infection, subjects",[2]; [5],10.4%
same,"AESI category Effect on heart rate and rhythm (including aypotension), %",[2]; [6],(4.2) %
same,"AESI category Hepatobiliary disorders/Liver enzyme abnormality, %",[2]; [6],(14.5) %
same,"AESI category Herpetic infection, %",[2]; [6],(4.8) %
same,"AESI category Hypertension, %",[2]; [6],(9.0) %
same,"AESI category Macular edema, %",[2]; [6],(0.2) %
same,"AESI category Non-skin malignancy, %",[2]; [6],(0.2) %
same,"AESI category Pulmonary events, %",[2]; [6],(2.7) %
same,"AESI category Seizure, %",[2]; [6],(0.2) %
same,"AESI category Skin malignancy, %",[2]; [6],(0.2) %
same,"AESI category Hepatobiliary disorders/Liver enzyme abnormality, %",[2]; [7],14.5%
same,"AESI category Hypertension, %",[2]; [7],9.0%
same,"AESI category Pulmonary events, %",[2]; [7],2.7%
same,"AESI category Infection, %","[2]; treatment-emergent AESI, only if reported as serious or severe, Safety Set",(0.9) %
same,"AEs leading to premature discontinuation, SOC Blood and lymphatic system disorders, %","[2]; treatment-emergent, Safety Set",(0.4) %
same,"AEs leading to premature discontinuation, SOC Cardiac disorders, %","[2]; treatment-emergent, Safety Set",(0.4) %
same,"AEs leading to premature discontinuation, SOC Gastrointestinal disorders, %","[2]; treatment-emergent, Safety Set",(0.7) %
same,"AEs leading to premature discontinuation, SOC General disorders and administration site conditions, %","[2]; treatment-emergent, Safety Set",(0.4) %
same,"AEs leading to premature discontinuation, SOC Hepatobiliary disorders, %","[2]; treatment-emergent, Safety Set",(0.4) %
same,"AEs leading to premature discontinuation, SOC Investigations, %","[2]; treatment-emergent, Safety Set",(1.8) %
same,"AEs leading to premature discontinuation, SOC Musculoskeletal and connective tissue disorders, %","[2]; treatment-emergent, Safety Set",(0.2) %
same,"AEs leading to premature discontinuation, SOC Neoplasms benign, malignant and unspecified (incl cysts and polyps), %","[2]; treatment-emergent, Safety Set",(0.2) %
same,"AEs leading to premature discontinuation, SOC Nervous system disorders, %","[2]; treatment-emergent, Safety Set",(0.7) %
same,"AEs leading to premature discontinuation, SOC Pregnancy, puerperium and perinatal conditions, %","[2]; treatment-emergent, Safety Set",(0.5) %
same,"AEs leading to premature discontinuation, SOC Psychiatric disorders, %","[2]; treatment-emergent, Safety Set",(0.2) %
same,"AEs leading to premature discontinuation, SOC Reproductive system and breast disorders, %","[2]; treatment-emergent, Safety Set",(0.2) %
same,"AEs leading to premature discontinuation, SOC Skin and subcutaneous tissue disorders, %","[2]; treatment-emergent, Safety Set",(0.4) %
same,"AEs leading to premature discontinuation, SOC Social circumstances, %","[2]; treatment-emergent, Safety Set",(0.2) %
same,"AEs leading to premature discontinuation, SOC Surgical and medical procedures, %","[2]; treatment-emergent, Safety Set",(0.2) %
same,"Subjects with at least one AE leading to study drug discontinuation, %","[2]; treatment-emergent, Safety Set",(6.0) %
same,"Subjects with at least one AE, %","[2]; treatment-emergent, Safety Set",(88.2) %
same,"Subjects with at least one Drug-Related AE, %","[2]; treatment-emergent, Safety Set",(42.0) %
same,"Subjects with at least one Fatal AE, %","[2]; treatment-emergent, Safety Set",(0.4) %
same,"Subjects with at least one Serious AE, %","[2]; treatment-emergent, Safety Set",(8.1) %
same,"Subjects with at least one Severe AE, %","[2]; treatment-emergent, Safety Set",(4.6) %
same,"Subjects with at least one AE leading to study drug discontinuation, %",[2]; [8],6.0%
same,"Subjects with at least one AE, %",[2]; [8],88.2%
same,"Subjects with at least one Serious AE, %",[2]; [8],8.1%
same,Mean heart rate change compared to pre-dose at 2-hours post dose,"[3]; 12-lead ECG, Safety Set",−1.7 bpm
same,Subjects with asymptomatic post-dose HR≤40 bpm,[3]; all with pre-treatment HR <55 bpm,none
same,Patients who achieved NEDA-3,[4]; At week 108,18.3%
same,Mean number of new Gd+T1 lesions per scan,[4]; baseline to week 108,0.43
same,Mean numbers of new/enlarging T2 lesions per year,[4]; baseline to week 108,3.16
